From the NIST ThermoML archive (doi:10.1016/j.jct.2015.08.014)

Experiment: xn = mol fraction of the nth substance listed
Conditions: 273.15 K, 100 kPa, Liquid; for electrical conductivity: Alternating current cell with electrodes; for viscosity: Capillary tube (Ostwald / Ubbelohde) method

CCCC[N+]1(C)CCCC1.N#CN=C=[N-] [1-butyl-1-methylpyrrolidinium dicyanamide] + O=C1CCCO1
Conditions	electrical conductivity [S/m]	viscosity [mPa·s]
x1 = 0.0463	0.977	–
x1 = 0.0987	1.43	4.69
x1 = 0.1449	1.56	–
x1 = 0.1859	1.634	7.2
x1 = 0.2493	1.517	–
x1 = 0.3029	1.42	12.03
x1 = 0.3845	1.25	–
x1 = 0.4985	1.03	24.9
x1 = 0.6954	0.742	45.65
x1 = 0.9013	0.562	76.07
x1 = 1	0.523	93.95

Conditions	electrical conductivity [S/m]
Frequency=0.0005 MHz, x1 = 0.0463	0.97
Frequency=0.0005 MHz, x1 = 0.0987	1.41
Frequency=0.0005 MHz, x1 = 0.1449	1.56
Frequency=0.0005 MHz, x1 = 0.1859	1.619
Frequency=0.0005 MHz, x1 = 0.2493	1.513
Frequency=0.0005 MHz, x1 = 0.3029	1.42
Frequency=0.0005 MHz, x1 = 0.3845	1.25
Frequency=0.0005 MHz, x1 = 0.4985	1.03
Frequency=0.0005 MHz, x1 = 0.6954	0.741
Frequency=0.0005 MHz, x1 = 0.9013	0.561
Frequency=0.0005 MHz, x1 = 1	0.522
Frequency=0.001 MHz, x1 = 0.0463	0.973
Frequency=0.001 MHz, x1 = 0.0987	1.42
Frequency=0.001 MHz, x1 = 0.1449	1.56
Frequency=0.001 MHz, x1 = 0.1859	1.625
Frequency=0.001 MHz, x1 = 0.2493	1.515
Frequency=0.001 MHz, x1 = 0.3029	1.42
Frequency=0.001 MHz, x1 = 0.3845	1.25
Frequency=0.001 MHz, x1 = 0.4985	1.03
Frequency=0.001 MHz, x1 = 0.6954	0.741
Frequency=0.001 MHz, x1 = 0.9013	0.561
Frequency=0.001 MHz, x1 = 1	0.522
Frequency=0.0015 MHz, x1 = 0.0463	0.975
Frequency=0.0015 MHz, x1 = 0.0987	1.42
Frequency=0.0015 MHz, x1 = 0.1449	1.56
Frequency=0.0015 MHz, x1 = 0.1859	1.627
Frequency=0.0015 MHz, x1 = 0.2493	1.515
Frequency=0.0015 MHz, x1 = 0.3029	1.42
Frequency=0.0015 MHz, x1 = 0.3845	1.25
Frequency=0.0015 MHz, x1 = 0.4985	1.03
Frequency=0.0015 MHz, x1 = 0.6954	0.741
Frequency=0.0015 MHz, x1 = 0.9013	0.562
Frequency=0.0015 MHz, x1 = 1	0.522
Frequency=0.002 MHz, x1 = 0.0463	0.975
Frequency=0.002 MHz, x1 = 0.0987	1.42
Frequency=0.002 MHz, x1 = 0.1449	1.56
Frequency=0.002 MHz, x1 = 0.1859	1.629
Frequency=0.002 MHz, x1 = 0.2493	1.516
Frequency=0.002 MHz, x1 = 0.3029	1.42
Frequency=0.002 MHz, x1 = 0.3845	1.25
Frequency=0.002 MHz, x1 = 0.4985	1.03
Frequency=0.002 MHz, x1 = 0.6954	0.742
Frequency=0.002 MHz, x1 = 0.9013	0.562
Frequency=0.002 MHz, x1 = 1	0.522
Frequency=0.0025 MHz, x1 = 0.0463	0.976
Frequency=0.0025 MHz, x1 = 0.0987	1.42
Frequency=0.0025 MHz, x1 = 0.1449	1.56
Frequency=0.0025 MHz, x1 = 0.1859	1.63
Frequency=0.0025 MHz, x1 = 0.2493	1.516
Frequency=0.0025 MHz, x1 = 0.3029	1.42
Frequency=0.0025 MHz, x1 = 0.3845	1.25
Frequency=0.0025 MHz, x1 = 0.4985	1.03
Frequency=0.0025 MHz, x1 = 0.6954	0.742
Frequency=0.0025 MHz, x1 = 0.9013	0.562
Frequency=0.0025 MHz, x1 = 1	0.522
Frequency=0.003 MHz, x1 = 0.0463	0.976
Frequency=0.003 MHz, x1 = 0.0987	1.42
Frequency=0.003 MHz, x1 = 0.1449	1.56
Frequency=0.003 MHz, x1 = 0.1859	1.631
Frequency=0.003 MHz, x1 = 0.2493	1.516
Frequency=0.003 MHz, x1 = 0.3029	1.42
Frequency=0.003 MHz, x1 = 0.3845	1.25
Frequency=0.003 MHz, x1 = 0.4985	1.03
Frequency=0.003 MHz, x1 = 0.6954	0.742
Frequency=0.003 MHz, x1 = 0.9013	0.562
Frequency=0.003 MHz, x1 = 1	0.522
Frequency=0.00347222 MHz, x1 = 0.0463	0.977
Frequency=0.00347222 MHz, x1 = 0.0987	1.42
Frequency=0.00347222 MHz, x1 = 0.1449	1.56
Frequency=0.00347222 MHz, x1 = 0.1859	1.632
Frequency=0.00347222 MHz, x1 = 0.2493	1.516
Frequency=0.00347222 MHz, x1 = 0.3029	1.42
Frequency=0.00347222 MHz, x1 = 0.3845	1.25
Frequency=0.00347222 MHz, x1 = 0.4985	1.03
Frequency=0.00347222 MHz, x1 = 0.6954	0.742
Frequency=0.00347222 MHz, x1 = 0.9013	0.562
Frequency=0.00347222 MHz, x1 = 1	0.523
Frequency=0.004 MHz, x1 = 0.0463	0.977
Frequency=0.004 MHz, x1 = 0.0987	1.42
Frequency=0.004 MHz, x1 = 0.1449	1.56
Frequency=0.004 MHz, x1 = 0.1859	1.632
Frequency=0.004 MHz, x1 = 0.2493	1.516
Frequency=0.004 MHz, x1 = 0.3029	1.42
Frequency=0.004 MHz, x1 = 0.3845	1.25
Frequency=0.004 MHz, x1 = 0.4985	1.03
Frequency=0.004 MHz, x1 = 0.6954	0.742
Frequency=0.004 MHz, x1 = 0.9013	0.562
Frequency=0.004 MHz, x1 = 1	0.523
Frequency=0.00446429 MHz, x1 = 0.0463	0.977
Frequency=0.00446429 MHz, x1 = 0.0987	1.42
Frequency=0.00446429 MHz, x1 = 0.1449	1.56
Frequency=0.00446429 MHz, x1 = 0.1859	1.633
Frequency=0.00446429 MHz, x1 = 0.2493	1.516
Frequency=0.00446429 MHz, x1 = 0.3029	1.42
Frequency=0.00446429 MHz, x1 = 0.3845	1.25
Frequency=0.00446429 MHz, x1 = 0.4985	1.03
Frequency=0.00446429 MHz, x1 = 0.6954	0.742
Frequency=0.00446429 MHz, x1 = 0.9013	0.562
Frequency=0.00446429 MHz, x1 = 1	0.523
Frequency=0.005 MHz, x1 = 0.0463	0.977
Frequency=0.005 MHz, x1 = 0.0987	1.42
Frequency=0.005 MHz, x1 = 0.1449	1.56
Frequency=0.005 MHz, x1 = 0.1859	1.633
Frequency=0.005 MHz, x1 = 0.2493	1.517
Frequency=0.005 MHz, x1 = 0.3029	1.42
Frequency=0.005 MHz, x1 = 0.3845	1.25
Frequency=0.005 MHz, x1 = 0.4985	1.03
Frequency=0.005 MHz, x1 = 0.6954	0.742
Frequency=0.005 MHz, x1 = 0.9013	0.562
Frequency=0.005 MHz, x1 = 1	0.523
Frequency=0.005454 MHz, x1 = 0.0463	0.977
Frequency=0.005454 MHz, x1 = 0.0987	1.43
Frequency=0.005454 MHz, x1 = 0.1449	1.56
Frequency=0.005454 MHz, x1 = 0.1859	1.634
Frequency=0.005454 MHz, x1 = 0.2493	1.517
Frequency=0.005454 MHz, x1 = 0.3029	1.42
Frequency=0.005454 MHz, x1 = 0.3845	1.25
Frequency=0.005454 MHz, x1 = 0.4985	1.03
Frequency=0.005454 MHz, x1 = 0.6954	0.742
Frequency=0.005454 MHz, x1 = 0.9013	0.562
Frequency=0.005454 MHz, x1 = 1	0.523
Frequency=0.006 MHz, x1 = 0.0463	0.977
Frequency=0.006 MHz, x1 = 0.0987	1.43
Frequency=0.006 MHz, x1 = 0.1449	1.56
Frequency=0.006 MHz, x1 = 0.1859	1.634
Frequency=0.006 MHz, x1 = 0.2493	1.517
Frequency=0.006 MHz, x1 = 0.3029	1.42
Frequency=0.006 MHz, x1 = 0.3845	1.25
Frequency=0.006 MHz, x1 = 0.4985	1.03
Frequency=0.006 MHz, x1 = 0.6954	0.742
Frequency=0.006 MHz, x1 = 0.9013	0.562
Frequency=0.006 MHz, x1 = 1	0.523
Frequency=0.00652174 MHz, x1 = 0.0463	0.978
Frequency=0.00652174 MHz, x1 = 0.0987	1.43
Frequency=0.00652174 MHz, x1 = 0.1449	1.56
Frequency=0.00652174 MHz, x1 = 0.1859	1.634
Frequency=0.00652174 MHz, x1 = 0.2493	1.517
Frequency=0.00652174 MHz, x1 = 0.3029	1.42
Frequency=0.00652174 MHz, x1 = 0.3845	1.25
Frequency=0.00652174 MHz, x1 = 0.4985	1.03
Frequency=0.00652174 MHz, x1 = 0.6954	0.742
Frequency=0.00652174 MHz, x1 = 0.9013	0.563
Frequency=0.00652174 MHz, x1 = 1	0.523
Frequency=0.00694444 MHz, x1 = 0.0463	0.978
Frequency=0.00694444 MHz, x1 = 0.0987	1.43
Frequency=0.00694444 MHz, x1 = 0.1449	1.56
Frequency=0.00694444 MHz, x1 = 0.1859	1.634
Frequency=0.00694444 MHz, x1 = 0.2493	1.517
Frequency=0.00694444 MHz, x1 = 0.3029	1.42
Frequency=0.00694444 MHz, x1 = 0.3845	1.25
Frequency=0.00694444 MHz, x1 = 0.4985	1.03
Frequency=0.00694444 MHz, x1 = 0.6954	0.742
Frequency=0.00694444 MHz, x1 = 0.9013	0.563
Frequency=0.00694444 MHz, x1 = 1	0.523
Frequency=0.0075 MHz, x1 = 0.0463	0.978
Frequency=0.0075 MHz, x1 = 0.0987	1.43
Frequency=0.0075 MHz, x1 = 0.1449	1.56
Frequency=0.0075 MHz, x1 = 0.1859	1.634
Frequency=0.0075 MHz, x1 = 0.2493	1.517
Frequency=0.0075 MHz, x1 = 0.3029	1.42
Frequency=0.0075 MHz, x1 = 0.3845	1.25
Frequency=0.0075 MHz, x1 = 0.4985	1.03
Frequency=0.0075 MHz, x1 = 0.6954	0.742
Frequency=0.0075 MHz, x1 = 0.9013	0.563
Frequency=0.0075 MHz, x1 = 1	0.523
Frequency=0.008 MHz, x1 = 0.0463	0.978
Frequency=0.008 MHz, x1 = 0.0987	1.43
Frequency=0.008 MHz, x1 = 0.1449	1.56
Frequency=0.008 MHz, x1 = 0.1859	1.635
Frequency=0.008 MHz, x1 = 0.2493	1.517
Frequency=0.008 MHz, x1 = 0.3029	1.42
Frequency=0.008 MHz, x1 = 0.3845	1.25
Frequency=0.008 MHz, x1 = 0.4985	1.03
Frequency=0.008 MHz, x1 = 0.6954	0.742
Frequency=0.008 MHz, x1 = 0.9013	0.563
Frequency=0.008 MHz, x1 = 1	0.523
Frequency=0.00857143 MHz, x1 = 0.0463	0.978
Frequency=0.00857143 MHz, x1 = 0.0987	1.43
Frequency=0.00857143 MHz, x1 = 0.1449	1.57
Frequency=0.00857143 MHz, x1 = 0.1859	1.635
Frequency=0.00857143 MHz, x1 = 0.2493	1.517
Frequency=0.00857143 MHz, x1 = 0.3029	1.42
Frequency=0.00857143 MHz, x1 = 0.3845	1.25
Frequency=0.00857143 MHz, x1 = 0.4985	1.03
Frequency=0.00857143 MHz, x1 = 0.6954	0.742
Frequency=0.00857143 MHz, x1 = 0.9013	0.563
Frequency=0.00857143 MHz, x1 = 1	0.523
Frequency=0.00892857 MHz, x1 = 0.0463	0.978
Frequency=0.00892857 MHz, x1 = 0.0987	1.43
Frequency=0.00892857 MHz, x1 = 0.1449	1.57
Frequency=0.00892857 MHz, x1 = 0.1859	1.635
Frequency=0.00892857 MHz, x1 = 0.2493	1.517
Frequency=0.00892857 MHz, x1 = 0.3029	1.42
Frequency=0.00892857 MHz, x1 = 0.3845	1.25
Frequency=0.00892857 MHz, x1 = 0.4985	1.03
Frequency=0.00892857 MHz, x1 = 0.6954	0.742
